# Results reported in patent US7063844B2, “Presentation of hydrophobic antigens to T-cells by CD1 molecules” (The Brigham and Women's Hospital, Inc., priority 1992, dated 2006).
# Like-named read-outs stand apart in the source and are kept apart here.
# B1: Il-10: cytokine strongly expressed in lepromatous lesions (protein, UniProt P22301 19-178, looked up)
# Interleukin-10: SPGQGTQSENSCTHFPGNLPNMLRDLRDAFSRVKTFFQMKDQLDNLLLKESLLEDFKGYLGCQALSEMIQFYLEEVMPQAENQDPDIKAHVNSLGENLKTLRLRLRRCHRFLPCENKSKAVEQVKNAFNKLQEKGIYKAMSEFDIFINYIEAYMTMKIRN
# B2: interferon-γ: cytokine, 100 U/ml (protein, UniProt P01579 24-161, looked up)
# Interferon gamma: QDPYVKEAENLKKYFNAGHSDVADNGTLFLGILKNWKEESDRKIMQSQIVSFYFKLFKNFKDDQSIQKSVETIKEDMNVKFFNSNKKKRDDFEKLTNYSVTDLNVQRKAIHELIQVMAELSPAAKTGKRKRSQMLFRG
# Columns and labels:
# [1] = tested on: peripheral blood monocytes; test: CD1 expression on cytokine-cultured monocytes, flow cytometry; assay type: cell-based, human; settings: for expression of CD1a, CD1b and CD1c on monocytes: monocytes cultured with cytokine, 60 hours
# T-cell line LDN4 = test: Proliferation of CD1b-restricted line LDN4; assay type: cell-based, human
# [2] = in vivo; cited from earlier work
# T-cell line DN1 = assay type: cell-based, human; settings: CD1+ APCs (GM-CSF- and IL-4-treated monocytes)
# [3] = tested on: T-cell lines SP-F3, CP.1.15, BK6; test: Proliferation of further T-cell lines to test mitogenicity (SP-F3, CP.1.15, BK6); assay type: cell-based, human
# T-cell line OGD1 = test: Proliferation assay, TCR γδ+ line OGD1; assay type: cell-based, human; settings: activated monocytes, 3 day assay
# T-cell line OAB8 = test: Proliferation assay, CD8+ TCR αβ+ line OAB8; assay type: cell-based, human; settings: mycolic acid at 1 μg/ml
# T-cell line DN6 = test: Proliferation assay, CD1c-restricted line DN6; assay type: cell-based, human; settings: CD1+ APCs
# T-cell line DG.1 = assay type: cell-based, human; settings: CD1+ PBMCs from HLA-DR7 positive individual as APCs
# T-cell line BDN2 = assay type: cell-based, human
molecule,measurement,setting,value
GM-CSF: granulocyte/monocyte colony stimulating factor used alone,"expression of CD1a, CD1b and CD1c on monocytes",[1],somewhat less
phosphatidylinositol mannoside [PIM],proliferative response of LDN4 to antigen,T-cell line LDN4,ten-fold more than media alone
"6,6-trehalose dimycolate",antibody formation,[2],enhance antibody formation
same,nonspecific immunity to bacterial infections and tumors,[2],stimulate nonspecific immunity
same,proliferative response of T-cell line DN1 to antigen,T-cell line DN1,stimulated the proliferation
mycolic acid,"proliferative response of SP-F3, CP.1.15 and BK6",[3],did not respond
same,mitogenicity,[3]; six T-cell lines tested,not mitogenic
same,response of OGD1 to antigen,T-cell line OGD1,recognized
same,response of OAB8 to antigen,T-cell line OAB8,recognized
same,recognition by T-cell line DN6 (proliferative response),T-cell line DN6,recognized only by CD1b-restricted DN1 T-cells
same,recognition by T-cell line DG.1 (proliferative response),T-cell line DG.1,recognized only by CD1b-restricted DN1 T-cells
same,proliferative response of T-cell line DN1 to antigen,T-cell line DN1,recognized
CCCCCCCCCCCCCCCCCCCCCC(=O)OC[C@H]1O[C@H](O[C@H]2O[C@H](COC(=O)CCCCCCCCCCCCCCCCCCCCC)[C@@H](O)[C@H](O)[C@H]2O)[C@H](O)[C@@H](O)[C@@H]1O [trehalose dibehanate],proliferative response of T-cell line DN1 to antigen,T-cell line DN1,no stimulation
mycolic acid-arabinogalactan-peptidoglycan [mAGP],proliferative response of LDN4 to antigen,T-cell line LDN4,No response
lipoarabinomannan [LAM],response of BDN2 to antigen,T-cell line BDN2,responded
same,proliferative response of LDN4 to antigen,T-cell line LDN4,proliferated
same,proliferative response of LDN4 to antigen,T-cell line LDN4; listed as Lep LAM,stimulated
same,proliferative response of LDN4 to antigen,T-cell line LDN4; listed as native LAM,striking T-cell proliferation
B1,inhibition of the expression of CD1 on monocytes,[1]; data not shown,could inhibit
B2,"expression of CD1a, CD1b and CD1c on monocytes",[1],did not express significant levels
